From the NIST ThermoML archive (doi:10.1016/j.jct.2018.01.003)
Numbers after ± are expanded uncertainties.

Experiment: activity coefficient (dimensionless); of the first substance listed, at infinite dilution; xn = mol fraction of the nth substance listed
Details: 101.33 kPa, Liquid, Chromatography, x1 = 0

With CCCC=O [butanal] + CCCCCCCCCCCCCC[P+](CCCCCC)(CCCCCC)CCCCCC.N#CC(=C=[N-])C#N the activity coefficient (328.15 K) was 0.46 ± 0.036, the activity coefficient (338.15 K) was 0.477 ± 0.037 and the activity coefficient (348.15 K) was 0.494 ± 0.038. For the same molecule, the activity coefficient (358.15 K) was 0.513 ± 0.038 and the activity coefficient (368.15 K) was 0.533 ± 0.039.

C1CCCCCC1 [cycloheptane] + CCCCCCCCCCCCCC[P+](CCCCCC)(CCCCCC)CCCCCC.N#CC(=C=[N-])C#N gave an activity coefficient (328.15 K) of 1.21 ± 0.08, an activity coefficient (338.15 K) of 1.22 ± 0.08 and an activity coefficient (348.15 K) of 1.23 ± 0.08. The activity coefficient (358.15 K) was 1.25 ± 0.08 and the activity coefficient (368.15 K) was 1.26 ± 0.08.

C1CCCCC1 [cyclohexane] + CCCCCCCCCCCCCC[P+](CCCCCC)(CCCCCC)CCCCCC.N#CC(=C=[N-])C#N showed an activity coefficient (328.15 K) of 1.14 ± 0.07, an activity coefficient (338.15 K) of 1.15 ± 0.07 and an activity coefficient (348.15 K) of 1.16 ± 0.07. It also gave an activity coefficient (358.15 K) of 1.17 ± 0.07 and an activity coefficient (368.15 K) of 1.18 ± 0.08.

C1=CCCCC1 [cyclohexene] + CCCCCCCCCCCCCC[P+](CCCCCC)(CCCCCC)CCCCCC.N#CC(=C=[N-])C#N gave an activity coefficient (328.15 K) of 0.906 ± 0.057, an activity coefficient (338.15 K) of 0.922 ± 0.058 and an activity coefficient (348.15 K) of 0.938 ± 0.059. It also gave an activity coefficient (358.15 K) of 0.958 ± 0.06 and an activity coefficient (368.15 K) of 0.973 ± 0.061.

With C1CCCCCCC1 [cyclooctane] + CCCCCCCCCCCCCC[P+](CCCCCC)(CCCCCC)CCCCCC.N#CC(=C=[N-])C#N the activity coefficient (328.15 K) was 1.32 ± 0.09, the activity coefficient (338.15 K) was 1.33 ± 0.09 and the activity coefficient (348.15 K) was 1.35 ± 0.09. It also gave an activity coefficient (358.15 K) of 1.36 ± 0.09 and an activity coefficient (368.15 K) of 1.37 ± 0.09.

C1CCCC1 [cyclopentane] + CCCCCCCCCCCCCC[P+](CCCCCC)(CCCCCC)CCCCCC.N#CC(=C=[N-])C#N gave an activity coefficient (328.15 K) of 0.99 ± 0.062, an activity coefficient (338.15 K) of 1 ± 0.06 and an activity coefficient (348.15 K) of 1.01 ± 0.06. It also gave an activity coefficient (358.15 K) of 1.03 ± 0.06 and an activity coefficient (368.15 K) of 1.04 ± 0.07.

In the case of CCCCCCCCCC [decane] + CCCCCCCCCCCCCC[P+](CCCCCC)(CCCCCC)CCCCCC.N#CC(=C=[N-])C#N, the activity coefficient (328.15 K) is reported as 3.09 ± 0.21, the activity coefficient (338.15 K) is reported as 3.1 ± 0.21 and the activity coefficient (348.15 K) is reported as 3.1 ± 0.21. It also gave an activity coefficient (358.15 K) of 3.1 ± 0.21 and an activity coefficient (368.15 K) of 3.1 ± 0.21.

Work on CCOCC [diethyl ether] + CCCCCCCCCCCCCC[P+](CCCCCC)(CCCCCC)CCCCCC.N#CC(=C=[N-])C#N yielded an activity coefficient (328.15 K) of 0.943 ± 0.059, an activity coefficient (338.15 K) of 0.981 ± 0.062 and an activity coefficient (348.15 K) of 1.01 ± 0.06. It also gave an activity coefficient (358.15 K) of 1.05 ± 0.07 and an activity coefficient (368.15 K) of 1.08 ± 0.07.

CC(C)OC(C)C [diisopropyl ether] + CCCCCCCCCCCCCC[P+](CCCCCC)(CCCCCC)CCCCCC.N#CC(=C=[N-])C#N showed an activity coefficient (328.15 K) of 1.5 ± 0.1, an activity coefficient (338.15 K) of 1.54 ± 0.1 and an activity coefficient (348.15 K) of 1.58 ± 0.1. The activity coefficient (358.15 K) was 1.62 ± 0.11 and the activity coefficient (368.15 K) was 1.66 ± 0.11.

For CCCOCCC [dipropyl ether] + CCCCCCCCCCCCCC[P+](CCCCCC)(CCCCCC)CCCCCC.N#CC(=C=[N-])C#N, the activity coefficient (328.15 K) was 1.3 ± 0.08, the activity coefficient (338.15 K) was 1.35 ± 0.09 and the activity coefficient (348.15 K) was 1.39 ± 0.09. It also gave an activity coefficient (358.15 K) of 1.43 ± 0.09 and an activity coefficient (368.15 K) of 1.47 ± 0.1.

CCO [ethanol] + CCCCCCCCCCCCCC[P+](CCCCCC)(CCCCCC)CCCCCC.N#CC(=C=[N-])C#N showed an activity coefficient (328.15 K) of 0.462 ± 0.036, an activity coefficient (338.15 K) of 0.471 ± 0.037 and an activity coefficient (348.15 K) of 0.477 ± 0.037. For the same molecule, the activity coefficient (358.15 K) was 0.485 ± 0.037 and the activity coefficient (368.15 K) was 0.49 ± 0.037.

CCOC(C)=O [ethyl acetate] + CCCCCCCCCCCCCC[P+](CCCCCC)(CCCCCC)CCCCCC.N#CC(=C=[N-])C#N showed an activity coefficient (328.15 K) of 0.653 ± 0.045, an activity coefficient (338.15 K) of 0.678 ± 0.046 and an activity coefficient (348.15 K) of 0.699 ± 0.047. For the same molecule, the activity coefficient (358.15 K) was 0.724 ± 0.048 and the activity coefficient (368.15 K) was 0.746 ± 0.049.

In the case of CCc1ccccc1 [ethylbenzene] + CCCCCCCCCCCCCC[P+](CCCCCC)(CCCCCC)CCCCCC.N#CC(=C=[N-])C#N, the activity coefficient (328.15 K) is reported as 0.701 ± 0.047, the activity coefficient (338.15 K) is reported as 0.729 ± 0.048 and the activity coefficient (348.15 K) is reported as 0.756 ± 0.05. For the same molecule, the activity coefficient (358.15 K) was 0.783 ± 0.051 and the activity coefficient (368.15 K) was 0.805 ± 0.052.

Work on CCCCCCC [heptane] + CCCCCCCCCCCCCC[P+](CCCCCC)(CCCCCC)CCCCCC.N#CC(=C=[N-])C#N yielded an activity coefficient (328.15 K) of 2.04 ± 0.14, an activity coefficient (338.15 K) of 2.06 ± 0.14 and an activity coefficient (348.15 K) of 2.08 ± 0.14. The activity coefficient (358.15 K) was 2.1 ± 0.14 and the activity coefficient (368.15 K) was 2.12 ± 0.14.

Molecule C=CCCCC [hex-1-ene] + CCCCCCCCCCCCCC[P+](CCCCCC)(CCCCCC)CCCCCC.N#CC(=C=[N-])C#N has an activity coefficient (328.15 K) of 1.39 ± 0.09, an activity coefficient (338.15 K) of 1.42 ± 0.09 and an activity coefficient (348.15 K) of 1.43 ± 0.09. For the same molecule, the activity coefficient (358.15 K) was 1.46 ± 0.1 and the activity coefficient (368.15 K) was 1.48 ± 0.1.

With CCCCCC [hexane] + CCCCCCCCCCCCCC[P+](CCCCCC)(CCCCCC)CCCCCC.N#CC(=C=[N-])C#N the activity coefficient (328.15 K) was 1.77 ± 0.12, the activity coefficient (338.15 K) was 1.81 ± 0.12 and the activity coefficient (348.15 K) was 1.83 ± 0.12. For the same molecule, the activity coefficient (358.15 K) was 1.86 ± 0.13 and the activity coefficient (368.15 K) was 1.88 ± 0.13.

Work on CO [methanol] + CCCCCCCCCCCCCC[P+](CCCCCC)(CCCCCC)CCCCCC.N#CC(=C=[N-])C#N yielded an activity coefficient (328.15 K) of 0.39 ± 0.034, an activity coefficient (338.15 K) of 0.399 ± 0.034 and an activity coefficient (348.15 K) of 0.408 ± 0.034. For the same molecule, the activity coefficient (358.15 K) was 0.417 ± 0.035 and the activity coefficient (368.15 K) was 0.424 ± 0.035.
